Assay results: patent publication US20150269307A1, “TARGET INHIBITION MAP SYSTEM FOR COMBINATION THERAPY DESIGN AND METHODS OF USING SAME” (Texas Tech University System, priority 2014, published 2015)

Tests used:
[1] = system: human patient-derived xenografts; test: Xenograft-derived chemical screen (Supplemental Table 3); type: cell-based; settings: 60 agent PPTI screen
Description: Three chemical screens were applied to the U23674 primary tumor cell culture. […] The target inhibition profile is a quantified description of the inhibitory properties of the compound on the numerous protein targets preset on the PPTI screen.
To screen the chemical agents, cell cultures were plated in 384 well plates at a seeding density of 2000 cells per well over graded concentrations of the numerous compounds. The chemical concentrations were between 10 nM and […] depending on the activity range of the compounds. The cells were incubated in DMEM supplemented with 1% penicillin streptomycin, and 10% fetal bovine serum for 72 hours. Chemical sensitivity was determined by an MTS cell viability assay after the 72 hour incubation period. The sensitivity responses at the different concentrations were used to determine the chemical IC50 using a hill curve fitting algorithm with variable hill slope coefficients.

DIPG neurospheres [2] = test: BrdU based cell proliferation ELISA assay; set-up: species or system mouse
Description: (§1) A bromodeoxyuridine (BrdU) based cell proliferation ELISA assay kit (Roche) was used for proliferation and processed according to the manufacturer's protocol. […] Viability was measured with CellTiter-Glo Luminescent Cell Viability Assay (# G7572, Promega) per manufacturer's protocol, luminescence values were obtained using Turner Biosystems Modulus Microplate luminometer (model 9300-062). All values are given as mean+/−SD of at least 3 independent experiments.

U23674 cells = test: Four-arm orthotropic allograft study, survival; type: in vivo, mouse; settings: 50 mg/kg OSI-906, 150 mg/kg GDC-0941, oral gavage; compared to vehicle and other arms
Description: This engraftment was performed after damaging the right leg via cardiotoxin as previously described. Treatment commenced two days after engraftment. Dosing schedule was once daily by oral gavage up to day 5, at which time dosing was performed every other day. The endpoint for the study and survival analysis was tumor volume=1.4 cc.

DIPG neurospheres [3] = test: Cellular viability assay (CellTiter-Glo Luminescent Cell Viability Assay); type: cell-based, mouse; settings: 48 hours
Description: as §1

AKT = test: Western blot analysis of phospho-Akt after IGF-1 stimulation; type: cell-based, mouse; settings: 4 hours of drug exposure at 1 μM and higher
Description: (§2) IGF-1R ligand was added at 10 nmol/L concentration for 15 minutes prior to cell collection. […] Protein concentrations of total cell lysates or total tissue lysates were determined using BCA assay kit (Pierce). Lysates were resolved by SDS-PAGE (Invitrogen) and transferred to nitrocellulose membranes (Bio-Rad Laboratories). […] All antibodies were purchased from Cell Signaling except Actin, which was purchased from Santa Cruz Biotech. Membranes were incubated with the appropriate labeled secondary antibodies, and protein was visualized and quantified using Li-Cor Biosciences Odyssey Infrared Imaging system (Li-Cor Biosciences). Inhibition was calculated by comparing the ratio of phosphorylation signals in untreated versus treated samples after normalization to actin. All values are given as mean+/−SD of at least 3 independent experiments.

IGF-1R = target: T1, IGF-1R (Mus musculus, UniProt Q60751); test: Western blot analysis of phospho-IGF-1R after IGF-1 stimulation; type: cell-based; settings: 4 hours of drug exposure at 1 μM and higher
T1 construct: endogenous in cells; host or cells: murine DIPG neurospheres (Ntv-a p53 deficient, PDGF-B driven)
T1 sequence (Q60751 31-1373): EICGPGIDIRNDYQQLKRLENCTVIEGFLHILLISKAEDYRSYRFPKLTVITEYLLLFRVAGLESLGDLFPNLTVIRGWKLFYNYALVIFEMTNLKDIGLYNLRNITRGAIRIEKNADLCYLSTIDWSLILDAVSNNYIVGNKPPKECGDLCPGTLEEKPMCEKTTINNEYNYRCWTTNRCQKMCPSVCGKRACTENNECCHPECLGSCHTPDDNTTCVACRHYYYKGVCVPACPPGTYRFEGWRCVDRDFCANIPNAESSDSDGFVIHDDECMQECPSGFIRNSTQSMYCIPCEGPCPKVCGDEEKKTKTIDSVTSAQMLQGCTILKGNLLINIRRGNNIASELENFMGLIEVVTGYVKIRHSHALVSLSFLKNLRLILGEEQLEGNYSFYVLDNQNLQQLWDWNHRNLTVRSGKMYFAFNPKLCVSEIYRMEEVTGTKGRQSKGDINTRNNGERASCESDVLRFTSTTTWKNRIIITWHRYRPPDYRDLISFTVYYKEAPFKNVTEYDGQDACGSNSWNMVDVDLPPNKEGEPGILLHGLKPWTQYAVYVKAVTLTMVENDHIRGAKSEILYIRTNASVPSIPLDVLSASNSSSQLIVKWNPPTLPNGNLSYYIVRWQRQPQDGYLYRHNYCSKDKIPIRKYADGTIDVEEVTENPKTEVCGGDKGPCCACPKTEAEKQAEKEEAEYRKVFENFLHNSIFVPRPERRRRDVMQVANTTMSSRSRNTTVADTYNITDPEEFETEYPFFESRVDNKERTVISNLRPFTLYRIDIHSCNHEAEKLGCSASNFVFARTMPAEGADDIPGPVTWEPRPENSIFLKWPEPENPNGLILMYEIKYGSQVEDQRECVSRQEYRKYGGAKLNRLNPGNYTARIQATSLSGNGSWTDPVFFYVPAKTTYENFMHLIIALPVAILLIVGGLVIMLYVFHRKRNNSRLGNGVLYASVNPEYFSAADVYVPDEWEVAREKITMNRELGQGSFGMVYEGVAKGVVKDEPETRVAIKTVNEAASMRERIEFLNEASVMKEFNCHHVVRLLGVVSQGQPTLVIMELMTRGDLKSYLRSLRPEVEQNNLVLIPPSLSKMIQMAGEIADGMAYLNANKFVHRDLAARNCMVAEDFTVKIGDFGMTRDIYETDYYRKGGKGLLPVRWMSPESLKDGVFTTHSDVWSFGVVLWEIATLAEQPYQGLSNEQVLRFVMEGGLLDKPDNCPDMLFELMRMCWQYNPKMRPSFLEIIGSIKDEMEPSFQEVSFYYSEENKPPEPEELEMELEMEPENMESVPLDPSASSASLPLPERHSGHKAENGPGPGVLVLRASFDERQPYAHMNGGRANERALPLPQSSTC
Description: as §2

DIPG neurospheres [4] = test: cells
Description: Primary cultures of DIPG neurospheres were added to 384 well plates pre-plated with 60 known drugs in an increasing gradient of concentrations. […] To complete this drug screen, primary cultures of nestin […] 53 deficient DIPG neurospheres were added to plates with 60 known drug samples in an increasing gradient of concentrations.

C[C@]1(O)C[C@@H](c2nc(-c3ccc4ccc(-c5ccccc5)nc4c3)c3c(N)nccn32)C1 [OSI-906]
IC50 Value [1]: >conc tested
concentration giving significant inhibition of proliferation (DIPG neurospheres [2]): ≥ 1 µM
IC50 (DIPG neurospheres [2]; Mus musculus, 48 hours, BrdU assay): 2500 nM
survival of mice (endpoint tumor volume 1.4 cc) (U23674 cells): no better than survival of mice only treated with vehicle
concentration giving significant reduction of viability (DIPG neurospheres [3]): ≥ 1 µM
IC50 (DIPG neurospheres [3]; Mus musculus, CellTiter-Glo, read-out: IC50, viability / cytotoxic effects): 2400 nM
reduction in pAKT expression (AKT): 69%
reduction in pIGF-1R (IGF-1R): 73%
IC50 (DIPG neurospheres [4]; 48 h, read-out: In Vitro Absolute IC50): 1740 nM
viability at 10 µM (DIPG neurospheres [4]; read-out: cell viability (cytocidal)): < 15%
